Test [1] deals with Luciferin 4-monooxygenase (Photinus pyralis, UniProt P08659). The test is described as follows: inhibition of purified Photinus pyralis luciferase – biochemical, luminescence, dose response (AID 1891).
A short description of test [2]: Luminescence Cell-Based Dose Confirmation HTS to Identify Inhibitors of Platelet Dense Granule Release. [Related pubchem assays: 1663 (Primary HTS), 1678 (Summary of Project)]. It counts as functional.
Test [3] in a line: cells. It counts as functional.
Test [4] is described as follows: Luminescence Cell-Based Dose Retest to Confirm Inhibitors of Cancer Stem Cells. [Related pubchem assays (depositor defined):AID2717, AID2721]. It counts as functional. The conditions noted are these: Homo sapiens.

Active and inactive are the calls of the source.
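Wherever AC50 is given: cells exposed to compound for roughly 70 hours or longer before luminescence read.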

Sequence of Luciferin 4-monooxygenase (P08659 whole entry): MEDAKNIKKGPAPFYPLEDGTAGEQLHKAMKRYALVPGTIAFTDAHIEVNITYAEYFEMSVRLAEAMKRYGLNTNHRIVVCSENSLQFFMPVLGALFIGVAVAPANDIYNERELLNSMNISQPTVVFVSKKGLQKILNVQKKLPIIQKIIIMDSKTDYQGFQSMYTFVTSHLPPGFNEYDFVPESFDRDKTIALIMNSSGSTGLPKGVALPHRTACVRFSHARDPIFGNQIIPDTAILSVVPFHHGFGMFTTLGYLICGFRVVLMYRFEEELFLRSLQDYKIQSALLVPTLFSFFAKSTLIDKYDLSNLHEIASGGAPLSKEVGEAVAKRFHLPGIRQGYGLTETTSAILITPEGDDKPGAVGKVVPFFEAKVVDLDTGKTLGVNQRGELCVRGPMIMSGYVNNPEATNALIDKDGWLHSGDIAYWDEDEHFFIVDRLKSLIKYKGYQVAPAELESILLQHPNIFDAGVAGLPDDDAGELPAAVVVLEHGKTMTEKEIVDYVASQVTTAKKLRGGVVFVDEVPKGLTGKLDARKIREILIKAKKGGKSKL

Usually EC50 stands for the concentration that produces a half-maximal response. As to `CCC(C)SCc1nc2ccccc2[nH]1` (stereo unspecified), the EC50 in test [1] and in test [2] was > 112 µM (not active) throughout.

For the molecule `O=C(Nc1ccccc1F)c1cnc(O)nc1O`, the EC50 in test [1] and in test [2] was > 112 µM (not active) each time.

Regarding `O=C1NC(=S)N=C1c1c(O)[nH]c2ccccc12`, the EC50 in test [1] and in test [2] was > 112 µM (not active) throughout.

The term IC50 denotes the point on the concentration scale where inhibition reaches its midpoint. On to `COc1cccc(OCC(=O)NNC(=O)C(=O)Nc2cccc(C)c2)c1`, for which the IC50 in test [3] was 20.4 µM (active).

With `COc1ccc(CCN2CC(C(=O)NCCc3ccccc3C(F)(F)F)CCC2=O)cc1` (stereo unspecified), the EC50 in test [1] and in test [2] was > 112 µM (not active) in each case.

Turning to `CCc1cccc(NC(=O)CN(C)S(=O)(=O)c2c[nH]cn2)c1`, the EC50 in test [1] and in test [2] was > 112 µM (not active) in each case.

As for `O=C(c1ccc(S(=O)(=O)N2CCOCC2)cc1)N1CCN(c2ccc(F)cc2)CC1`, the concentration giving a half-maximal response (EC50) was > 112 µM (not active) in test [1] and 93.8 µM (active) in test [2].

With `CN1C2CCC1CC(NC(=O)CSc1ccc(Cl)cc1)C2` (stereo unspecified), the EC50 in test [1] and in test [2] was > 112 µM (not active) in each case.

What is called AC50 is the concentration at which the activity in the assay is half-maximal. Consider `Cc1ccc2c(c1)c1ncn(CCC3=CCCCC3)c(=O)c1n2C`, for which the AC50 in test [4] is 1 µM (active).

As to `Cc1cc(C)c2c(c1)cc(C)c1nnc(SCC(=O)Nc3ccccc3N3CCOCC3)n12`, the half-maximal effective concentration (EC50) in test [1] and in test [2] was > 112 µM (not active) throughout.

As to `CCCNC(=O)NC(=O)COc1ccc(-c2ccc(C#N)cc2)cc1`, the IC50 in test [3] is 1.12 µM (active).

Consider `Cc1cc(OCC(=O)Nc2ccncc2)ccc1Br`, for which the IC50 in test [3] is > 50 µM (active).

Consider `COc1ccc(N/C=C/C(=O)c2ccccc2)cc1`, for which the figures for the EC50 in test [1] and in test [2] were 0.863 µM (active) and < 0.701 µM (active), respectively.

Consider `O=C(Cc1ccccc1)Nc1cccc(NC(=O)c2ccccc2)c1`, for which, in test [4], the AC50 is 7.49 µM (active).

Take `COc1ccc(NC(=O)c2ccc(-c3ccc([N+](=O)[O-])cc3)o2)cc1OC`: the IC50 in test [3] was > 50 µM (active).

Regarding `COc1ccc(CNC(=O)c2ccccc2NC(=O)C2=CSCCO2)c(OC)c1`, the figures for the EC50 in test [1] and in test [2] were > 112 µM (not active) and 15.7 µM (active), respectively.

`CC(=O)Nc1ccc(-c2csc(NC(=O)Cc3cccc(F)c3)n2)cc1`: the concentration at half-maximal activity (AC50) in test [4] is 1.29 µM (active).

For `O=c1c2ccccc2nc(/C=C/c2ccc(Br)cc2)n1CCO`, the AC50 in test [4] is 10.5 µM (active).

In the case of `COC(=O)c1ccc(/C=C/c2c(-c3ccc(OC)cc3)sc3ccccc23)cc1`, in test [4], the AC50 is 3.79 µM (active).

Take `Cc1ccc(NC(=O)CO/N=C/c2ccccc2C)c(C)c1`: in test [3], the IC50 is 50 µM (active).

On to `O=C(NCCc1c[nH]c2ccccc12)C(=O)c1c[nH]c2ccccc12`, for which the AC50 in test [4] was 1.48 µM (active).
